Assay results as given in ChEMBL document CHEMBL3885861, “Open TG-GATES”.

Organism: Rattus norvegicus
Assay: Open TG-GATES - Regimen: Daily Repeat
Type: toxicity, organism-based, Sprague-Dawley
Set-up: regimen Daily Repeat, gender Male, age 6 weeks
Conditions: in vivo, po, route gavage; for ALP / ALT / AST / BUN / CRE / DBIL / GLC / IP / K / LDH / Na / RALB / TBIL / TC / TG / TP / gamma-GTP: tissue Plasma; for Bas / Eos / Fbg / Lym / MCH / MCHC / MCV / Mono / Neu / PT / Plat / RBC / Ret / WBC: tissue Blood; for KIDNEY_L / KIDNEY_R / KIDNEY_TOTAL: tissue Kidney
[1] = 3 mg/kg, […], dose level Low, time 28 day
[2] = 10 mg/kg, 72 h, dose level Middle, time 3 day
[3] = 10 mg/kg, […], dose level Middle, time 7 day
[4] = 10 mg/kg, […], dose level Middle, time 14 day
[5] = 10 mg/kg, […], dose level Middle, time 28 day
[6] = 30 mg/kg, 72 h, dose level High, time 3 day
[7] = 30 mg/kg, […], dose level High, time 7 day
[8] = 30 mg/kg, […], dose level High, time 14 day

Cc1cnc(NC(=O)C2=C(O)c3ccccc3S(=O)(=O)N2C)s1 [MELOXICAM]
ALP [1]: 620 IU/L
ALT [1]: 33.6 IU/L
AST [1]: 64.4 IU/L
BUN [1]: 18.2 mg/dL
CRE [1]: 0.5 mg/dL
DBIL [1]: 0.1 mg/dL
GLC [1]: 235.2 mg/dL
IP [1]: 7.2 mg/dL
K [1]: 3.9 meq/L
LDH [1]: 170.8 IU/L
Na [1]: 142 meq/L
RALB [1]: 3.5 g/dL
TBIL [1]: 0.2 mg/dL
TC [1]: 71.2 mg/dL
TG [1]: 121.6 mg/dL
TP [1]: 5.9 g/dL
gamma-GTP [1]: 1.2 IU/L
TERMINAL_BW [2]: 246.9 g
Bas [2]: 0.8%
Eos [2]: 0.6%
Fbg [2]: 248.8 mg/dL
Lym [2]: 71.4%
MCH [2]: 21.7 pg
MCHC [2]: 34.1%
MCV [2]: 63.6 fL
Mono [2]: 3.4%
Neu [2]: 23.4%
PT [2]: 11.7 s
Plat [2]: 127 x10_4/uL
RBC [2]: 635.2 x10_4/ul
Ret [2]: 6%
WBC [2]: 135.2 x10_2/uL
KIDNEY_L [2]: 1.1 g
KIDNEY_R [2]: 1.1 g
KIDNEY_TOTAL [2]: 2.3 g
ALP [2]: 919 IU/L
ALT [2]: 43.2 IU/L
AST [2]: 75.4 IU/L
CRE [2]: 0.4 mg/dL
DBIL [2]: 0.1 mg/dL
IP [2]: 7.5 mg/dL
K [2]: 4.1 meq/L
LDH [2]: 242.6 IU/L
Na [2]: 142.2 meq/L
RALB [2]: 3.5 g/dL
TBIL [2]: 0.2 mg/dL
TC [2]: 79 mg/dL
TG [2]: 129.2 mg/dL
TP [2]: 5.7 g/dL
gamma-GTP [2]: 1 IU/L
TERMINAL_BW [3]: 277.9 g
TERMINAL_BW [4]: 321.8 g
TERMINAL_BW [5]: 398.2 g
Bas [3]: 0.6%
Eos [3]: 1%
Fbg [3]: 223.8 mg/dL
Lym [3]: 73.8%
MCH [3]: 21.5 pg
MCHC [3]: 34.5%
MCV [3]: 62.2 fL
Mono [3]: 2.8%
Neu [3]: 21.8%
PT [3]: 11.9 s
RBC [3]: 633 x10_4/ul
Ret [3]: 5.4%
WBC [3]: 119.8 x10_2/uL
Bas [4]: 1%
Eos [4]: 0.8%
Fbg [4]: 234.2 mg/dL
Lym [4]: 74.2%
MCH [4]: 20.3 pg
MCHC [4]: 33.7%
MCV [4]: 60 fL
Mono [4]: 3%
Neu [4]: 21.2%
PT [4]: 11.6 s
Plat [4]: 116.5 x10_4/uL
RBC [4]: 699.4 x10_4/ul
Ret [4]: 4.5%
WBC [4]: 135.2 x10_2/uL
Bas [5]: 1%
Eos [5]: 1%
Fbg [5]: 242.8 mg/dL
Lym [5]: 73%
MCH [5]: 19.4 pg
MCHC [5]: 33.9%
MCV [5]: 57.2 fL
Mono [5]: 3.2%
Neu [5]: 21.4%
PT [5]: 11.5 s
Plat [5]: 118.5 x10_4/uL
RBC [5]: 740.6 x10_4/ul
Ret [5]: 3.4%
WBC [5]: 170.5 x10_2/uL
KIDNEY_L [3]: 1.2 g
KIDNEY_R [3]: 1.2 g
KIDNEY_TOTAL [3]: 2.4 g
KIDNEY_L [4]: 1.4 g
KIDNEY_R [4]: 1.4 g
KIDNEY_TOTAL [4]: 2.7 g
KIDNEY_L [5]: 1.5 g
KIDNEY_R [5]: 1.5 g
KIDNEY_TOTAL [5]: 3 g
ALP [3]: 952.8 IU/L
ALT [3]: 34.2 IU/L
AST [3]: 72.6 IU/L
CRE [3]: 0.5 mg/dL
DBIL [3]: 0.094 mg/dL
IP [3]: 7.5 mg/dL
K [3]: 4.2 meq/L
LDH [3]: 197.8 IU/L
Na [3]: 141.4 meq/L
RALB [3]: 3.4 g/dL
TBIL [3]: 0.2 mg/dL
TC [3]: 68.4 mg/dL
TG [3]: 96.4 mg/dL
TP [3]: 5.6 g/dL
gamma-GTP [3]: 3.4 IU/L
ALP [4]: 873.6 IU/L
ALT [4]: 38.6 IU/L
AST [4]: 72.8 IU/L
BUN [4]: 17.8 mg/dL
CRE [4]: 0.4 mg/dL
DBIL [4]: 0.1 mg/dL
IP [4]: 7.2 mg/dL
K [4]: 4 meq/L
LDH [4]: 185.4 IU/L
Na [4]: 142.6 meq/L
RALB [4]: 3.5 g/dL
TBIL [4]: 0.2 mg/dL
TC [4]: 67.2 mg/dL
TG [4]: 128.6 mg/dL
TP [4]: 5.9 g/dL
gamma-GTP [4]: 1 IU/L
ALP [5]: 643.2 IU/L
ALT [5]: 33.2 IU/L
AST [5]: 66 IU/L
BUN [5]: 17 mg/dL
CRE [5]: 0.5 mg/dL
DBIL [5]: 0.096 mg/dL
GLC [5]: 244 mg/dL
IP [5]: 7.3 mg/dL
K [5]: 3.9 meq/L
LDH [5]: 176.8 IU/L
Na [5]: 141.8 meq/L
RALB [5]: 3.2 g/dL
TBIL [5]: 0.2 mg/dL
TC [5]: 65.2 mg/dL
TG [5]: 121.4 mg/dL
TP [5]: 5.7 g/dL
gamma-GTP [5]: 0.8 IU/L
TERMINAL_BW [6]: 230.2 g
Bas [6]: 0.6%
Eos [6]: 0.4%
Fbg [6]: 378.4 mg/dL
Lym [6]: 66.6%
MCH [6]: 21.2 pg
MCHC [6]: 34.1%
MCV [6]: 61.9 fL
Mono [6]: 4.4%
Neu [6]: 25.6%
PT [6]: 11.6 s
RBC [6]: 512.4 x10_4/ul
Ret [6]: 7.1%
WBC [6]: 150.3 x10_2/uL
KIDNEY_L [6]: 1.2 g
KIDNEY_R [6]: 1.2 g
KIDNEY_TOTAL [6]: 2.5 g
ALP [6]: 536 IU/L
ALT [6]: 26 IU/L
AST [6]: 52.4 IU/L
BUN [6]: 17 mg/dL
CRE [6]: 0.4 mg/dL
DBIL [6]: 0.072 mg/dL
IP [6]: 8.2 mg/dL
K [6]: 4.1 meq/L
LDH [6]: 165.8 IU/L
Na [6]: 140.8 meq/L
RALB [6]: 2.4 g/dL
TBIL [6]: 0.1 mg/dL
TC [6]: 71.6 mg/dL
TG [6]: 110.4 mg/dL
TP [6]: 4.9 g/dL
gamma-GTP [6]: 1.2 IU/L
TERMINAL_BW [7]: 231.5 g
TERMINAL_BW [8]: 312.2 g
Bas [7]: 0.6%
Eos [7]: 0.6%
Fbg [7]: 379.2 mg/dL
Lym [7]: 55.6%
MCH [7]: 20.6 pg
MCHC [7]: 32.5%
MCV [7]: 63.4 fL
Mono [7]: 4.8%
Neu [7]: 36.6%
PT [7]: 12 s
Plat [7]: 251.1 x10_4/uL
RBC [7]: 387 x10_4/ul
Ret [7]: 17.2%
WBC [7]: 145.2 x10_2/uL
Bas [8]: 1%
Eos [8]: 0%
Fbg [8]: 283.5 mg/dL
Lym [8]: 62%
MCH [8]: 20.8 pg
MCHC [8]: 33%
MCV [8]: 63 fL
Mono [8]: 4%
Neu [8]: 32%
PT [8]: 11.5 s
Plat [8]: 174 x10_4/uL
RBC [8]: 636.5 x10_4/ul
Ret [8]: 8.5%
WBC [8]: 190.7 x10_2/uL
KIDNEY_L [7]: 1.1 g
KIDNEY_R [7]: 1.1 g
KIDNEY_TOTAL [7]: 2.2 g
KIDNEY_L [8]: 1.5 g
KIDNEY_R [8]: 1.5 g
KIDNEY_TOTAL [8]: 3 g
ALP [7]: 1681.8 IU/L
ALT [7]: 18 IU/L
AST [7]: 74 IU/L
BUN [7]: 53.4 mg/dL
CRE [7]: 0.5 mg/dL
DBIL [7]: 0.1 mg/dL
GLC [7]: 153 mg/dL
IP [7]: 9.7 mg/dL
K [7]: 5.8 meq/L
LDH [7]: 221.2 IU/L
Na [7]: 136 meq/L
RALB [7]: 2.1 g/dL
TBIL [7]: 0.2 mg/dL
TC [7]: 66 mg/dL
TG [7]: 111.4 mg/dL
TP [7]: 5.1 g/dL
gamma-GTP [7]: 7.4 IU/L
ALP [8]: 580.5 IU/L
ALT [8]: 32.5 IU/L
AST [8]: 67 IU/L
BUN [8]: 16 mg/dL
CRE [8]: 0.4 mg/dL
DBIL [8]: 0.095 mg/dL
IP [8]: 7.5 mg/dL
K [8]: 4.2 meq/L
LDH [8]: 145.5 IU/L
Na [8]: 142 meq/L
RALB [8]: 3 g/dL
TBIL [8]: 0.2 mg/dL
TC [8]: 70 mg/dL
TG [8]: 139.5 mg/dL
TP [8]: 5.5 g/dL
gamma-GTP [8]: 1 IU/L
